Molecules are shown by their SMILES. Where a chain is given by its changes, count along the chain named. Structures can show the parent of a compound that is named as a salt.

The target in the first test is T1, plasma renin activity (PRA) (Macaca fascicularis, UniProt Q6DLS0).
T1 sequence (Q6DLS0 67-406): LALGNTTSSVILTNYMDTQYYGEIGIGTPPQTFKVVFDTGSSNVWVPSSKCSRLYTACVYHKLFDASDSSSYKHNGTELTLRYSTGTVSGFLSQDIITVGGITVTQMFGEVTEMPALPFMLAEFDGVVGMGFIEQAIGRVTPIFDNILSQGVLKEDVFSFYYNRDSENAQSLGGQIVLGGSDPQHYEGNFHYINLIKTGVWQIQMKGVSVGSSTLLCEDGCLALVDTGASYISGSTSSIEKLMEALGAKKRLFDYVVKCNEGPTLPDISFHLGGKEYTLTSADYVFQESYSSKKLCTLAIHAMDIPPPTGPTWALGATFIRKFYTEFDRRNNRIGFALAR
Experiment: not given
The note with it: male Macaca fascicularis; 1 mg/kg orally in 0.5% methylcellulose; plasma 4 hr after administration; amended with vehicle group.
As to `COCCCCn1c(C(=O)N(CC(C)C)[C@@H]2CNC[C@H](C(C)O)C2)nc2ccccc21` (stereo partly drawn) [Example 42, N-[(3S,5R)-5-(1-hydroxyethyl)piperidin-3-yl]-1-(4-methoxybutyl)-N-(2-methylpropyl)-1H-benzimidazole-2-carboxamide dihydrochloride], the “Macaca fascicularis plasma renin activity: PPA inhibitory activity (%, n = 3-7)” value was found to be 70%.
As to `CCC(O)[C@H]1CNC[C@@H](N(CC(C)C)C(=O)c2nc3ccccc3n2CCCCOC)C1` (stereo partly drawn) [Example 76, N-[(3S,5R)-5-(1-hydroxypropyl)piperidin-3-yl]-1-(4-methoxybutyl)-N-(2-methylpropyl)-1H-benzimidazole-2-carboxamide dihydrochloride], the “Macaca fascicularis plasma renin activity: PPA inhibitory activity (%, n = 3-7)” value is on record as 79%.
On the same count and under the same terms, for `COCCCCn1c(C(=O)N(CC(C)C)[C@@H]2CNC[C@H](C(=O)N3CCCC3)C2)nc2ccc(OC)cc21` [Example 62, 6-methoxy-1-(4-methoxybutyl)-N-(2-methylpropyl)-N-{(3S,5R)-5-(pyrrolidin-1-ylcarbonyl)piperidin-3-yl}-1H-benzimidazole-2-carboxamide dihydrochloride] the value was 75%; for `COCCCCn1c(C(=O)N(CC(C)C)[C@@H]2CNC[C@H](C(=O)N3CCOCC3)C2)nc2ccc(OC)cc21` [Example 60, 6-methoxy-1-(4-methoxybutyl)-N-(2-methylpropyl)-N-{(3S,5R)-5-(morpholin-4-ylcarbonyl)piperidin-3-yl}-1H-benzimidazole-2-carboxamide dihydrochloride], 85%.
Still for that read-out and setting: for `COCCCCn1c(C(=O)N(CC(C)C)[C@@H]2CNC[C@H](CO)C2)nc2ccccc21` [Example 40, N-[(3S,5R)-5-(hydroxymethyl)piperidin-3-yl]-1-(4-methoxybutyl)-N-(2-methylpropyl)-1H-benzimidazole-2-carboxamide dihydrochloride] the value was 75%; for `COCCCCn1c(C(=O)N(CC(C)C)[C@@H]2CNC[C@H](C(=O)O)C2)nc2ccccc21` [Example 33, (3R,5S)-5-[{[1-(4-methoxybutyl)-1H-benzimidazol-2-yl]carbonyl}(2-methylpropyl)amino]piperidine-3-carboxylic acid dihydrochloride], 77%; for `COCCCCn1c(C(=O)N(CC(C)C)[C@@H]2CNC[C@H](C(=O)OCc3oc(=O)oc3C)C2)nc2ccccc21` [Example 7, (5-methyl-2-oxo-1,3-dioxol-4-yl)methyl (3R,5S)-5-[{[1-(4-methoxybutyl)-1H-benzimidazol-2-yl]carbonyl}(2-methylpropyl)amino]piperidine-3-carboxylate dihydrochloride], 93%.
Still for that read-out and setting: with `COCCCCn1c(C(=O)N(CC(C)C)[C@@H]2CNC[C@H](C(O)COC)C2)nc2ccccc21` (stereo partly drawn) [Example 48, N-[(3S,5R)-5-(1-hydroxy-2-methoxyethyl)piperidin-3-yl]-1-(4-methoxybutyl)-N-(2-methylpropyl)-1H-benzimidazole-2-carboxamide dihydrochloride] the figure was 78%; with `COCCCCn1c(C(=O)N(CC(C)C)[C@@H]2CNC[C@H](C(=O)N3CCCC3)C2)nc2cc(F)ccc21` [Example 18, 5-fluoro-1-(4-methoxybutyl)-N-(2-methylpropyl)-N-[(3S,5R)-5-(pyrrolidin-1-ylcarbonyl)piperidin-3-yl]-1H-benzimidazole-2-carboxamide dihydrochloride], 89%; with `COCCCCn1c(C(=O)N(CC(C)C)[C@@H]2CNC[C@H]([C@H](O)COC)C2)nc2ccccc21.Cl.Cl` [Example 73-2, N-{(3S,5R)-5-[(1S)-1-hydroxy-2-methoxyethyl]piperidin-3-yl}-1-(4-methoxybutyl)-N-(2-methylpropyl)-1H-benzimidazole-2-carboxamide dihydrochloride], 90%.
`COCCCCc1c(C(=O)N(CC(C)C)[C@@H]2CNC[C@H](C(=O)N3CCOCC3)C2)nnn1-c1ccccc1Cl.Cl` [Example 235, 1-(2-chlorophenyl)-5-(4-methoxybutyl)-N-(2-methylpropyl)-N-[(3S,5R)-5-(morpholin-4-ylcarbonyl)piperidin-3-yl]-1H-1,2,3-triazole-4-carboxamide hydrochloride]: the “Macaca fascicularis plasma renin activity: PPA inhibitory activity (%, n = 3-7)” value is 62%.
Same read-out and setting: for `COCCCCn1c(C(=O)N(CC(C)C)[C@@H]2CNC[C@H]([C@@H](C)O)C2)nc2ccccc21.Cl.Cl` [Example 74-2, N-{(3S,5R)-5-[(1R)-1-hydroxyethyl]piperidin-3-yl}-1-(4-methoxybutyl)-N-(2-methylpropyl)-1H-benzimidazole-2-carboxamide dihydrochloride] the value was 54%; for `CC[C@@H](O)[C@H]1CNC[C@@H](N(CC(C)C)C(=O)c2nc3ccccc3n2CCCCOC)C1.Cl.Cl` [Example 75-2, N-{(3S,5R)-5-[(1R)-1-hydroxypropyl]piperidin-3-yl}-1-(4-methoxybutyl)-N-(2-methylpropyl)-1H-benzimidazole-2-carboxamide dihydrochloride], 71%.
On the same count and under the same terms, for `COCCCCn1c(C(=O)N(CC(C)C)[C@@H]2CNC[C@H](C(N)=O)C2)nc2ccccc21` [Example 25, N-[(3S,5R)-5-carbamoylpiperidin-3-yl]-1-(4-methoxybutyl)-N-(2-methylpropyl)-1H-benzimidazole-2-carboxamide dihydrochloride] the value was 79%.
Still for that read-out and setting: for `COCCCCn1c(C(=O)N(CC2CC2)[C@@H]2CNC[C@H](C(=O)N3CCOCC3)C2)nc2ccccc21` [Example 253, N-(cyclopropylmethyl)-1-(4-methoxybutyl)-N-[(3S,5R)-5-(morpholin-4-ylcarbonyl)piperidin-3-yl]-1H-benzimidazole-2-carboxamide dihydrochloride] the value was 77%; for `COCCCCn1c(C(=O)N(CC(C)C)[C@@H]2CNC[C@H](C(=O)N3CCCCC3)C2)nc2ccccc21` [Example 21, 1-(4-methoxybutyl)-N-(2-methylpropyl)-N-[(3S,5R)-5-(piperidin-1-ylcarbonyl)piperidin-3-yl]-1H-benzimidazole-2-carboxamide dihydrochloride], 85%.
For `CC[C@H](O)[C@H]1CNC[C@@H](N(CC(C)C)C(=O)c2nc3ccccc3n2CCCCOC)C1.Cl.Cl` [Example 75-1, N-{(3S,5R)-5-[(1S)-1-hydroxypropyl]piperidin-3-yl}-1-(4-methoxybutyl)-N-(2-methylpropyl)-1H-benzimidazole-2-carboxamide dihydrochloride], the “Macaca fascicularis plasma renin activity: PPA inhibitory activity (%, n = 3-7)” value is listed as 86%.
Take `COCCCCn1c(C(=O)N(CC(C)C)[C@@H]2CNC[C@H](C(=O)N3CCOCC3)C2)nc2ccccc21` [Example 10, 1-(4-methoxybutyl)-N-(2-methylpropyl)-N-[(3S,5R)-5-(morpholin-4-ylcarbonyl)piperidin-3-yl]-1H-benzimidazole-2-carboxamide dihydrochloride]: the “Macaca fascicularis plasma renin activity: PPA inhibitory activity (%, n = 3-7)” value turned out to be 72%.
The same measure, in the same setting: with `COCCCCn1c(C(=O)N(CC(C)C)[C@@H]2CNC[C@H]([C@@H](O)COC)C2)nc2ccccc21.Cl.Cl` [Example 73-1, N-{(3S,5R)-5-[(1R)-1-hydroxy-2-methoxyethyl]piperidin-3-yl}-1-(4-methoxybutyl)-N-(2-methylpropyl)-1H-benzimidazole-2-carboxamide dihydrochloride] the figure was 77%.
On the same count and under the same terms, with `COCCCCn1c(C(=O)N(CC(C)C)[C@@H]2CNC[C@H](C(=O)N3CCOCC3)C2)nc2ccc(F)cc21` [Example 11, 6-fluoro-1-(4-methoxybutyl)-N-(2-methylpropyl)-N-[(3S,5R)-5-(morpholin-4-ylcarbonyl)piperidin-3-yl]-1H-benzimidazole-2-carboxamide dihydrochloride] the figure was 89%.
Same read-out and setting: for `COCCCCc1c(C(=O)N(CC(C)C)[C@@H]2CNC[C@H](C(=O)N3CCOCC3)C2)nnn1-c1ccccc1F.Cl` [Example 233, 1-(2-fluorophenyl)-5-(4-methoxybutyl)-N-(2-methylpropyl)-N-[(3S,5R)-5-(morpholin-4-ylcarbonyl)piperidin-3-yl]-1H-1,2,3-triazole-4-carboxamide hydrochloride] the value was 67%.

For a further test, the target named is T2, Human renin (Homo sapiens, UniProt P00797).
T2 sequence (P00797 67-406): T1 sequence (Q6DLS0 67-406) with A2T, L148I, A169S
The experiment in a line: Human renin inhibition, angiotensin I quantified by EIA. The note with it: read-out: Human renin inhibitory activity: inhibitory activity (%) at 0.1 μM.
Method: (6) Measurement of Renin Inhibition Value
As a substrate for renin activity measurement, the angiotensinogen mentioned in (5) above was used. 1 μl each of the test compound (containing 100% DMSO) was added to each well of a 384-well plate (ABgene). Renin was diluted with a buffer solution for reaction (20 mM sodium phosphate (pH 7.4)) to a concentration of 57 pM, and 14 μl each of the dilution was added to each well. The dilution was left to stand at 37° C. for 10 min, and then 5 μl of each of a 6 μM solution of substrate angiotensinogen was added to each well to initiate the reaction. […] The amount of angiotensin I produced by an enzyme reaction was quantified by Enzyme Immuno Assay (EIA) described below.
Anti-angiotensin I antibody (Peninsula Laboratories Inc.) diluted 5,000-fold with PBS was added to each well of a 384 well black plate (Nalge Nunc International Co., Ltd.) by 25 μl, and left standing overnight at 4° C. to immobilize the antibody in the plate. The antibody solution was removed, PBS solution (100 μl) containing 1% BSA was added to each well, and the mixture was left standing at room temperature for 2 hr for blocking. The blocking solution was removed, and each well was washed 5 times with 100 μl of 0.05% Tween20-PBS. […] Then, a biotinated angiotensin I solution (AnaSpec, 15 μl) prepared to 1.6 nM with a buffer [20 mM tris-hydrochloric acid (pH 7.4), 150 mM sodium chloride, 0.01% BSA, 0.05% Tween20] was added to each well, mixed with a plate mixer and left standing at room temperature for 1 hr. The solutions were removed from each well, and each well was washed 5 times with 100 μl of 0.05% Tween20-PBS. Horseradish peroxydase Streptavidin (PIERCE Biotecnology inc., 25 μl) diluted to 100 ng/ml with a buffer [20 mM tris-hydrochloric acid (pH 7.4), 150 mM sodium chloride, 0.1% BSA, 0.05% Tween 20] was added to each well and the mixture was left standing at room temperature for 30 min. The solutions were removed from each well, and each well was washed 5 times with 100 μl of 0.05% Tween20-PBS. SuperSignal ELISA femto Maximum Sensitivity Substrate (PIERCE Biotecnology Inc.) was added by 25 μl and luminescence intensity was measured by EnVision (Perkin Elmer Inc.). An analytical curve was drawn from the luminescence intensity of wells containing an angiotensin I standard solution, and the amount of angiotensin I produced by an enzyme reaction was calculated and used as an index of renin activity.
As to `COCCCCn1c(C(=O)N(CC(C)C)[C@@H]2CNC[C@H]([C@@H](C)O)C2)nc2ccccc21.Cl.Cl` [Example 74-2, N-{(3S,5R)-5-[(1R)-1-hydroxyethyl]piperidin-3-yl}-1-(4-methoxybutyl)-N-(2-methylpropyl)-1H-benzimidazole-2-carboxamide dihydrochloride], the inhibition at 0.1 µM was determined as 96%.
Same read-out and setting: with `CC[C@@H](O)[C@H]1CNC[C@@H](N(CC(C)C)C(=O)c2nc3ccccc3n2CCCCOC)C1.Cl.Cl` [Example 75-2, N-{(3S,5R)-5-[(1R)-1-hydroxypropyl]piperidin-3-yl}-1-(4-methoxybutyl)-N-(2-methylpropyl)-1H-benzimidazole-2-carboxamide dihydrochloride] the figure was 90%.
As for `CC[C@H](O)[C@H]1CNC[C@@H](N(CC(C)C)C(=O)c2nc3ccccc3n2CCCCOC)C1.Cl.Cl` [Example 75-1, N-{(3S,5R)-5-[(1S)-1-hydroxypropyl]piperidin-3-yl}-1-(4-methoxybutyl)-N-(2-methylpropyl)-1H-benzimidazole-2-carboxamide dihydrochloride], the inhibition at 0.1 µM was determined as 95%.

Values taken from patent US9221836B2, “Heterocyclic compound and use thereof” (TAKEDA PHARMACEUTICAL COMPANY LIMITED, priority 2008, dated 2015).
